Test results as given in patent EP1100483B1, “GLUCOCORTICOID-SELECTIVE ANTI-INFLAMMATORY AGENTS” (Abbott Laboratories, priority 1998, dated 2000).

The compounds below were run against T1, human glucocorticoid receptor-α [GRX] isoform (Homo sapiens, UniProt P04150) (assay: glucocorticoid receptor (GR) cytosol binding assay, [3H]-dexamethasone competition). Details: not given.
T1 construct: purchased Ligand Pharmaceuticals (San Diego, CA); host or cells: insect SF21 cells (baculovirus)
T1 sequence (P04150 1-777): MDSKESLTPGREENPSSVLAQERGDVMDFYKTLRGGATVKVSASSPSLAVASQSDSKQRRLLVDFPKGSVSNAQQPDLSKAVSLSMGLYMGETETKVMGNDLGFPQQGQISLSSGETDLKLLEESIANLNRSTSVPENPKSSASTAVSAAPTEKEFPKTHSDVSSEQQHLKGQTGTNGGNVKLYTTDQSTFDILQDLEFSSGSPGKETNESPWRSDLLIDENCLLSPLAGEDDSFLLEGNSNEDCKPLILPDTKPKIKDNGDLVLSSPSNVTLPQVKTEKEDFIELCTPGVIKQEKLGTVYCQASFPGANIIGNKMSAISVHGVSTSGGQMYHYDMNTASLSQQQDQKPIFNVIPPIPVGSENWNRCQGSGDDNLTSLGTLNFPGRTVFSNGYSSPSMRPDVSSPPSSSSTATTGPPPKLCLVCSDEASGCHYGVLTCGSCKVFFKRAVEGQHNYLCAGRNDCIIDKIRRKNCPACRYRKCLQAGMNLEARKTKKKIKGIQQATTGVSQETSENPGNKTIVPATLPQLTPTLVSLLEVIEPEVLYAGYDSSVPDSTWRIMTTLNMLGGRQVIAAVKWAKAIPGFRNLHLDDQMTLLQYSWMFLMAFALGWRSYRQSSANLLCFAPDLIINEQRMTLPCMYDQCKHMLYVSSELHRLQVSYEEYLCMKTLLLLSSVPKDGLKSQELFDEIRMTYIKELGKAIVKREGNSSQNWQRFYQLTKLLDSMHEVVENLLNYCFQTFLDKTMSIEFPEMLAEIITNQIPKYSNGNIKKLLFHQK
Description: For glucocorticoid receptor (OR) cytosol binding assays, the procedure described in Anal. […] Briefly, cytosol preparations of human glucocorticoid receptor-α [GRX] isoform and human progesterone receptor-A [PRA] isoform were obtained from Ligand Pharmaceuticals (San Diego, CA). Both receptor cDNAs were cloned into baculovirus expression vectors and expressed in insect SF21 cells. […] Glass fiber type C multiscreen MAFC NOB plates were from Millipore ( Burlington, MA). Hydroxyapatide Bio-Gel HTP gel was obtained from Bio-Rad Laboratories (Hercules. CA). Tris(hydroxymethyl)aminomethane (Tris), ethylenediaminetetraacetic acid (EDTA), glycerol, dithiothreitol (DTT) and sodium moylybdate were obtained from Sigma Chemicals (St. Louis, MO). Microscint-20 scintillation fluid was obtained from Packard Instrument (Meriden, CT). […] GRX and PRA binding reactions were performed in Millipore Multiscreen plates. […] Specific binding was defined as the difference between binding of [^3H]Dex in the absence and in the presence of 1µM unlabeled Dex. After an overnight incubation, 50 µL of hydroxyapatite (25 % weight/volume) slurry were added to each well and plates were incubated for 10 min at 4 °C in a plate shaker. Plates were suctioned with a Millipore vacuum manifold and each well was rinsed with 300 µL of ice-cold binding buffer. A 250 µL aliquot of Packard Microscint-20 was added to each well and the wells were shaken at room temperature for 20 minutes. The amount of radioactivity was determined with a Packard TopCount plate reader.

| SMILES | Ki [nM] |
| --- | --- |
| CN(C)c1ccc(C(c2ccc(N(C)C)cc2)c2ccccc2C(F)(F)F)cc1 [Example 10, 4',4" bis(dimethylamino)-2-trifluoromethyltriphenylmethane] | 2230 |
| CN(C)c1ccc(C(c2ccc(N(C)C)cc2)c2ccccc2Br)cc1 [Example 14, 4',4" bis(dimethylamino)-2-bromotriphenylmethane] | 1510 |
| Cc1ccccc1C(c1ccc(N(C)C)cc1)c1ccc(N(C)C)cc1 [Example 15, 4',4" bis(dimethylamino)-2-methyltriphenylmethane] | 2960 |
| CN(C)c1ccc(C(c2ccc(N(C)C)cc2)c2cc(Cl)cc(Cl)c2Cl)cc1 [Example 16, 4',4" bis(dimethylamino)-2,3,5-trichlorotriphenylmethane] | 479 |
| CN(C)c1ccc(C(c2ccc(N(C)C)cc2)c2cc(C(F)(F)F)ccc2Cl)cc1 [Example 17, 4',4" bis(dimethylamino)-2-chloro-5-trifluoromethyltriphenylmethane] | 4700 |
| CN(C)c1ccc(C(c2ccc(N(C)C)cc2)c2ccc(Cl)cc2Cl)cc1 [Example 18, 4',4" bis(dimethylamino)-2,4-dichlorotriphenylmethane] | 5000 |
| CN(C)c1ccc(C(c2ccc(N(C)C)cc2)c2cc3c(cc2Cl)OCO3)cc1 [Example 19, 4',4" bis(dimethylamino)-2-chloro-4,5-methylenedioxytriphenylmethane] | 1600 |
| CN(C)c1ccc(C(c2ccc(N(C)C)cc2)c2c(Cl)cccc2Cl)cc1 [Example 20, 4',4" bis(dimethylamino)-2,6-dichlorotriphenylmethane] | 1930 |
| CN(C)c1ccc(C(c2ccc(N(C)C)cc2)c2cccc(Cl)c2Cl)cc1 [Example 21, 4',4" bis(dimethylamino)-2,3-dichlorotriphenylmethane] | 1890 |
| CN(C)c1ccc(C(c2ccc(N(C)C)cc2)c2ccccc2F)cc1 [Example 25, 4',4" bis(dimethylamino)-2-fluorotriphenylmethane] | 5270 |
| CN(C)c1ccc(C(c2ccc(N(C)C)cc2)c2ccccc2I)cc1 [Example 26, 4',4" bis(dimethylamino)-2-iodotriphenylmethane] | 734 |
| CN(C)c1ccc(C(c2ccc(N(C)C)cc2)c2cc(I)ccc2Cl)cc1 [Example 33, 4'.4" bis(dimethylamino)-2-chloro-5-iodotriphenylmethane] | 2300 |
| COc1ccc(C(c2ccc(N(C)C)cc2)c2ccc(N(C)C)cc2)cc1 [Example 38, 4',4"bis(dimethylamino)-4-methoxytriphenylmethane] | 4710 |
| CN(C)c1ccc(C(c2ccc(N3CCOCC3)cc2)c2cc([N+](=O)[O-])ccc2Cl)cc1 (stereo not shown) [Example 40, 4'-dimethylamino-4"-(N-morpholinyl)-2-chloro-5-nitrotriphenylmethane] | 252 |
| CN(C)c1ccc(C(c2ccc(N3CCCC3)cc2)c2cc([N+](=O)[O-])ccc2Cl)cc1 (stereo not shown) [Example 41, 4'-dimethylamino-4"-(N-pyrrolidinyl)-2-chloro-5-nitrotriphenylmethane] | 4490 |
| CCCCN(CCCC)c1ccc(C(c2ccc(N(C)C)cc2)c2cc([N+](=O)[O-])ccc2Cl)cc1 (stereo not shown) [Example 43, 4'-dimethylamino-4"-(di-n-butylamino)-2-chloro-5-nitrotriphenylmethane] | 4490 |
| Cc1cc(C(c2ccc(N(C)C)cc2)c2cc([N+](=O)[O-])ccc2Cl)ccc1N(C)C (stereo not shown) [Example 44, 3'-methyl-4',4"-bis(dimethylamino)-2-chloro-5-nitrotriphenylmethane] | 287 |
| CN(C)c1ccc(C(c2ccc(N3CCCCC3)cc2)c2cc([N+](=O)[O-])ccc2Cl)cc1 (stereo not shown) [Example 46, 4'-dimethylamino-4"-(N-piperidinyl)-2-chloro-5-nitrotriphenylmethane] | 1160 |
| CN(C)c1ccc(C(c2ccc(N(C)CCOC(=O)c3ccccc3)cc2)c2cc([N+](=O)[O-])ccc2Cl)cc1 (stereo not shown) [Example 50, 4'-dimethylamino-4"-(N-methyl-N-(2-benzoyloxyethyl)amino)-2-chloro-5-nitrotriphenylmethane] | 1630 |

Same assay, conditions: [3H]-Dex ~0.9 nM, GRX cytosol, 4 °C overnight; Cheng-Prusoff; read-out: Ki (nM) GR

| Ki [nM] | SMILES |
| --- | --- |
| 4200 | CN(C)c1ccc(C(c2ccc(N(C)C)cc2)c2ccc(Cl)c([N+](=O)[O-])c2)cc1 [Example 2, 4',4" bis(dimethylamino)-4-chloro-3-nitrotriphenylmethane] |
| 5150 | CC(=O)Nc1ccc(Cl)c(C(c2ccc(N(C)C)cc2)c2ccc(N(C)C)cc2)c1 [Example 3, 4',4" bis(dimethylamino)-5-acetamido-2-chlorotriphenylmethane] |
| 4650 | CN(C)c1ccc(C(c2ccc(N(C)C)cc2)c2ccc([N+](=O)[O-])cc2)cc1 [Example 4, 4',4" bis(dimethylamino)-4-nitrotriphenylmethane] |
| 4650 | CN(C)c1ccc(C(c2ccc(Cl)cc2)c2ccc(N(C)C)cc2)cc1 [Example 5, 4',4" bis(dimethylamino)-4-chlorotriphenylmethane] |
| 2520 | CN(C)c1ccc(C(c2ccc(N(C)C)cc2)c2cccc(Cl)c2)cc1 [Example 6, 4',4" bis(dimethylamino)-3-chlorotriphenylmethane] |
| 1990 | CN(C)c1ccc(C(c2ccc(N(C)C)cc2)c2ccccc2Cl)cc1 [Example 7, 4',4" bis(dimethylamino)-2-chlorotriphenylmethane] |
| 4290 | COc1ccccc1C(c1ccc(N(C)C)cc1)c1ccc(N(C)C)cc1 [Example 8, 4',4" bis(dimethylamino)-2-methoxytriphenylmethane] |
| 1380 | CN(C)c1ccc(C(c2ccc(N(C)C)cc2)c2cccc([N+](=O)[O-])c2)cc1 [Example 9, 4',4" bis(dimethylamino)-3-nitrotriphenylmethane] |
| 3850 | CN(C)c1ccc(C(c2ccc(N(C)C)cc2)c2c(Cl)cccc2[N+](=O)[O-])cc1 [Example 12, 4',4" bis(dimethylamino)-2-chloro-6-nitrotriphenylmethane] |
| 5000 | O=[N+]([O-])c1ccc(Cl)c(C(c2ccc(N3CCCCC3)cc2)c2ccc(N3CCCCC3)cc2)c1 [Example 13, 4',4" bis(N-piperidinyl)-2-chloro-5-nitrotriphenylmethane] |
| 386 | O=[N+]([O-])c1ccc(Cl)c(C(c2ccc(N3CCOCC3)cc2)c2ccc(N3CCOCC3)cc2)c1 [Example 22, 4',4" bis(N-morpholinyl)-2-chloro-5-nitrotriphenylmethane] |
| 725 | CN(C)c1ccc(C(c2ccc(N(C)C)cc2)c2cc(Br)ccc2Cl)cc1 [Example 34, 4',4" bis(dimethylamino)-5-bromo-2-chlorotriphenylmethane] |
| 421 | Clc1ccc(Cl)c(C(c2ccc(NCc3ccccc3)cc2)c2ccc(NCc3ccccc3)cc2)c1 [Example 37, 4',4" bis(N-benzylamino)-2,5-dichlorotriphenylmethane] |

| SMILES | Ki [nM] |
| --- | --- |
| Clc1cc(Cl)c(Cl)c(C(c2ccc(N3CCOCC3)cc2)c2ccc(N3CCOCC3)cc2)c1 [Example 28, 4',4" bis(N-morpholinyl)-2,3,5-trichlorotriphenylmethane] | 5270 |
| O=[N+]([O-])c1ccc(Cl)c(C(c2ccc(N3CCCC3)cc2)c2ccc(N3CCCC3)cc2)c1 [Example 29, 4',4" bis(N-pyrrolidinyl)-2-chloro-5-nitrotriphenylmethane] | 4560 |
| CN(C(=O)OC(C)(C)C)c1ccc(C(c2ccc(N(C)C(=O)OC(C)(C)C)cc2)c2cc([N+](=O)[O-])ccc2Cl)cc1 [Example 35, 4',4" bis(N-(t-butoxycarbonyl) N-methylamino)-2-chloro-5-nitrotriphenylmethane] | 4560 |
| CN(C)c1ccc(C(Oc2ccc(Cl)cc2)c2cc([N+](=O)[O-])ccc2Cl)cc1 (stereo not shown) [Example 53, 4-chlorophenyl-[(4'-dimethylaminophenyl)-(2-chloro-5-nitrophenyl)methyl] ether] | 788 |
| CN(C)c1ccc(C(Nc2ccccc2)c2cc([N+](=O)[O-])ccc2Cl)cc1 (stereo not shown) [Example 55, phenyl-[(4'-dimethylaminophenyl)-(2-chloro-5-nitrophenyl)methyl] amine] | 1680 |
